In PMC3938390 (Biochemistry, 2013):
Where two headings read alike, the source gives them in different places.

Key:
CB1^WT = CB1^WT (Homo sapiens, UniProt P21554); conditions: [3H]CP55940 binding
C98A,C107ACB1^WT = C98A,C107ACB1^WT (Homo sapiens, UniProt P21554, C107A/C98A); conditions: [3H]CP55940 binding, N-terminal C98-C107 disulfide removed by mutation
CB1 = CB1 (Homo sapiens, UniProt P21554); assay type: binding
[1] = CB1^WT treated with 10 mM DTT for 20 min prior to assay

Sequence of CB1^WT (P21554 whole entry): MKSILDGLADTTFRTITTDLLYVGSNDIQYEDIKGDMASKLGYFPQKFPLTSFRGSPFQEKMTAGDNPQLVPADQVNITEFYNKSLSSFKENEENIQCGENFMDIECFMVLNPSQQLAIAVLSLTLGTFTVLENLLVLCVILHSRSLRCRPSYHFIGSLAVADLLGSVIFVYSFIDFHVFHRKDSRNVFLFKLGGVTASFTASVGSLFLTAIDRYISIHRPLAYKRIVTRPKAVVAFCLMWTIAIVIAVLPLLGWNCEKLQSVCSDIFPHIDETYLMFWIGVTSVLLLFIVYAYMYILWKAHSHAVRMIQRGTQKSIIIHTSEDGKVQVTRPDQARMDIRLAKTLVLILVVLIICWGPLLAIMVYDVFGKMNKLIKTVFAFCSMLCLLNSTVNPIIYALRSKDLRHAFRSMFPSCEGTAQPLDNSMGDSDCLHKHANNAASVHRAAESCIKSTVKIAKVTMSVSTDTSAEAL
Sequence of CB1 (P21554 whole entry): as above
Sequence of C98A,C107ACB1^WT (P21554 whole entry C98A/C107A): as the sequence (P21554 whole entry) above, with C98A, C107A counted along it

| SMILES | allosteric cooperativity factor α for agonist binding (CB1^WT; [1]) | allosteric cooperativity factor α for agonist binding (CB1^WT; untreated CB1^WT) | allosteric cooperativity factor α for agonist binding (C98A,C107ACB1^WT) | cooperativity factor α between orthosteric ligand and DTT (CB1) |
| --- | --- | --- | --- | --- |
| CCc1c(C(=O)NCCc2ccc(N3CCCCC3)cc2)[nH]c2ccc(Cl)cc12 [Org 27569] | 6.8 ± 0.3 | 4.9 ± 0.4 | 7.8 ± 0.5 | – |
| O=C(Nc1ccc(Cl)cc1)Nc1cccc(-c2cccc(N3CCCC3)n2)c1 [PSNCBAM-1, 1-(4-chlorophenyl)-3-[3-(6-pyrrolidin-1-ylpyridin-2-yl)phenyl]urea] | 5.9 ± 0.3 | 4.2 ± 0.2 | – | – |
| CCCCCCC(C)(C)c1ccc([C@@H]2C[C@H](O)CC[C@H]2CCCO)c(O)c1 [CP55940, (-)-cis-3-[2-hydroxy-4-(1,1-dimethyl-heptyl)phenyl]-trans-4-(3-hydroxypropyl)cyclohexanol] | – | – | – | 0.69 ± 0.08 |
